A value given as a limit tells only on which side of the number the result lay.

This assay relates to methane production in rumen fluid. Briefly: Rumen in vitro (RIV) assay, methane production from rumen fluid incubations. The assay is classed as cell-based, cattle. The settings on record: Bos taurus, read-out: RIV % methane reduction +/− SD. How it is done:
The compounds of the present invention were initially screened for activity using an in vitro fully automated incubation system for the measurement of total gas production and gas composition (methane and hydrogen). The system used is described in detail in the paper by Muetzel et al. (2014; Animal Feed Science and Technology 196, 1-11). The system in this specification is referred to as the rumen in vitro system or RIV. The RIV system provides a relatively simple tool for determining the rate and production of methane and also whether the rate and production of methane is inhibited or reduced by a particular compound or feed. Rumen in vitro assays use rumen fluid from donor animals (typically either sheep or cattle) which is typically combined with a buffer and then incubated in sealed fermentation vessels at 39° C. for either 24 or 48 h. These assays systems have been well-characterised and used by the scientific community over the last two decades (Rymer et al. 2005). The system that has been used here to characterise the effects of inhibitors on methane production and gas production, and the formation of H2, was described by Muetzel et al. (2014). Rumen in vitro assay systems reflect what can occur in the rumen in vivo, but only short-term, due to their short incubation times (typically not exceeding 48 h) which is limited by its buffering capacity and the fact that it is a closed system. Stock solutions of inhibitors were re-suspended in dimethylformamide (DMF) at concentrations 1000-fold higher than the highest used for the assays. Any further dilutions were also prepared using DMF. The total amount of inhibitor solution added to the rumen fluid-buffer mixture (60 mL) was 60 μl. Incubations used 60 ml of medium containing 12 ml of filtered rumen fluid and 48 ml of buffer in serum bottles for 24-48 h, essentially as described by Muetzel et al. (2014). Two fistulated cattle were used as donor animals for rumen fluid and treatments were incubated in duplicate bottles. Sets of duplicate incubation vials that contained ryegrass (with rumen fluid-buffer mixture), and ryegrass with 30 μM bromoethanesulfonate (BES) were also incubated as negative and positive controls, respectively. One experiment consists of 2 replicates of an inhibitor at any one concentration run at the same time, and a run can contain up to 32 bottle, including positive (30 µM BES) and negative (no inhibitor added) controls. Compound 1, for example, was tested using the 60 mL rumen in vitro assay system at 50 μM, 10 μM, and 2 μM final concentrations and compared to a positive control with 30 µM BES.

For `NC(=O)CCC(=O)N1N=C(c2ccc(Cl)cc2)CC1c1ccc2nccnc2c1` (centres unmarked) [Compound 113, 4-(3-(4-Chlorophenyl)-5-(quinoxalin-6-yl)-4,5-dihydro-1H-pyrazol-1-yl)-4-oxobutanamide], the inhibition at 50 µM worked out at 15.6 ± 0.4%. In the case of `COCc1ccc(-c2ccc(C3=NN(C(=O)CCC(=O)O)C(c4ccc5nccnc5c4)C3)cc2)cc1` (centres unmarked) [Compound 89, 4-(3-(4′-(Methoxymethyl)-[1,1′-biphenyl]-4-yl)-5-(quinoxalin-6-yl)-4,5-dihydro-1H-pyrazol-1-yl)-4-oxobutanoic acid], the inhibition at 10 µM amounted to 21.9 ± 7% and the inhibition at 50 µM amounted to 85 ± 1.7%. With `O=C(O)/C=C\C(=O)N1N=C(c2ccc(Cl)cc2)CC1c1ccc2nccnc2c1` (centres unmarked) [Compound 52, (Z)-4-(3-(4-Chlorophenyl)-5-(quinoxalin-6-yl)-4,5-dihydro-1H-pyrazol-1-yl)-4-oxobut-2-enoic acid], the inhibition at 50 µM was 34.1 ± 1.3%.

In the case of `CC(C)c1ccc(C2=NN(C(=O)CCC(=O)O)C(c3ccc4nccnc4c3)C2)cc1` (centres unmarked) [Compound 3, 4-(3-(4-Isopropylphenyl)-5-(quinoxalin-6-yl)-4,5-dihydro-1H-pyrazol-1-yl)-4-oxobutanoic acid], the inhibition at 10 µM amounted to 5.5 ± 2.8% and the inhibition at 50 µM is 78.6 ± 1.1%. In the case of `CS(=O)(=O)NC(=O)CCC(=O)N1N=C(c2ccc(Cl)cc2)CC1c1ccc2nccnc2c1` (centres unmarked) [Compound 55, 4-(3-(4-Chlorophenyl)-5-(quinoxalin-6-yl)-4,5-dihydro-1-pyrazol-1-yl)-N-(methylsulfonyl)-4-oxobutanamide], the inhibition at 2 µM was less than 5%, the inhibition at 10 µM was 70 ± 4.5% and the inhibition at 50 µM was determined as 96.1 ± 0.5%. Regarding `O=C(O)CCC(=O)N1N=C(c2ccc(-c3ccc(OC(F)(F)F)cc3F)cc2)CC1c1ccc2nccnc2c1` (centres unmarked) [Compound 101, 4-(3-(2′-Fluoro-4′-(trifluoromethoxy)-[1,1′-biphenyl]-4-yl)-5-(quinoxalin-6-yl)-4,5-dihydro-1H-pyrazol-1-yl)-4-oxobutanoic acid], the inhibition at 10 µM worked out at 65.7 ± 2.9%. On to `O=C(O)CCC(=O)N1N=C2c3ccc(-c4ccccc4)cc3CCC2C1c1ccc2nccnc2c1` (centres unmarked) [Compound 75, 4-Oxo-4-(7-phenyl-3-(quinoxalin-6-yl)-3,3a,4,5-tetrahydro-2H-benzo[g]indazol-2-yl)butanoic acid], for which the inhibition at 2 µM came out at 15.8 ± 4.5%, the inhibition at 10 µM was 87.5 ± 0.6% and the inhibition at 50 µM amounted to 92.8 ± 0.5%. In the case of `CC(C)Oc1ccc(-c2ccc(C3=NN(C(=O)CCC(=O)O)C(c4ccc5nccnc5c4)C3)cc2)cn1` (centres unmarked) [Compound 107, 4-(3-(4-(6-Isopropoxypyridin-3-yl)phenyl)-5-(quinoxalin-6-yl)-4,5-dihydro-1H-pyrazol-1-yl)-4-oxobutanoic acid], the inhibition at 10 µM stood at 33.4 ± 2.1%. Take `COc1cccc(-c2cccc(C3=NN(C(=O)CCC(=O)O)C(c4ccc5nccnc5c4)C3)c2)c1` (centres unmarked) [Compound 97, 4-(3-(3′-Methoxy-[1,1′-biphenyl]-3-yl)-5-(quinoxalin-6-yl)-4,5-dihydro-1H-pyrazol-1-yl)-4-oxobutanoic acid]: the inhibition at 10 µM stood at 5.4 ± 0.2% and the inhibition at 50 µM came to 76 ± 1.4%. For the compound `O=C(O)CCC(=O)N1N=C(c2ccc(Cl)cc2)CC1c1ccc2c(c1)OCO2` (centres unmarked) [Compound 37, 4-(5-(benzo[d][1,3]dioxol-5-yl)-3-(4-chlorophenyl)-4,5-dihydro-1H-pyrazol-1-yl)-4-oxobutanoic acid], the inhibition at 50 µM stood at 15.6 ± 2%.

`COc1ccc(C2CC(c3ccc(Cl)cc3)=NN2C(=O)CCC(=O)O)cc1OC` (centres unmarked) [Compound 43, 4-(3-(4-Chlorophenyl)-5-(3,4-dimethoxyphenyl)-4,5-dihydro-1H-pyrazol-1-yl)-4-oxobutanoic acid]: the inhibition at 50 µM came to 39.7 ± 7.2%. The same measure, in the same setting: to `Cc1ccc(C2=NN(C(=O)CCC(=O)O)C(c3ccc4nccnc4c3)C2)cc1` (centres unmarked) [Compound 2] belongs 13.9%; to `O=C(O)CCC(=O)N1N=C(c2ccc(Cl)cc2Cl)CC1c1ccc2nccnc2c1` (centres unmarked) [Compound 10, 4-(3-(2,4-Dichlorophenyl)-5-(quinoxalin-6-yl)-4,5-dihydro-1H-pyrazol-1-yl)-4-oxobutanoic acid], 64 ± 0.6%. As to `CN(C)S(=O)(=O)NC(=O)CCC(=O)N1N=C(c2ccc(Cl)cc2)CC1c1ccc2nccnc2c1` (centres unmarked) [Compound 59, 4-(3-(4-Chlorophenyl)-5-(quinoxalin-6-yl)-4,5-dihydro-1H-pyrazol-1-yl)-N—(N,N-dimethylsulfamoyl)-4-oxobutanamide], the inhibition at 2 µM was determined as 10.6 ± 2.5%, the inhibition at 10 µM is 86.7 ± 7% and the inhibition at 50 µM worked out at 94.4 ± 4%.

Consider `CC(C)COc1ccc(-c2ccc(C3=NN(C(=O)CCC(=O)O)C(c4ccc5nccnc5c4)C3)cc2)cc1` (centres unmarked) [Compound 82, 4-(3-(4′-Isobutoxy-[1,1′-biphenyl]-4-yl)-5-(quinoxalin-6-yl)-4,5-dihydro-1H-pyrazol-1-yl)-4-oxobutanoic acid], for which the inhibition at 2 µM turned out to be 9.3 ± 7.6% and the inhibition at 10 µM worked out at 75.7 ± 4.6%. Turning to `O=C(O)c1cccc(N2N=C(c3ccc(-c4ccccc4)cc3)CC2c2ccc3nccnc3c2)c1` (centres unmarked) [Compound 61, 3-(3-([1,1′-Biphenyl]-4-yl)-5-(quinoxalin-6-yl)-4,5-dihydro-1H-pyrazol-1-yl)benzoic acid], the inhibition at 2 µM came to 13.1%, the inhibition at 10 µM was 88.3 ± 0.9% and the inhibition at 50 µM is 95.9 ± 0.6%.

In the case of `Cc1ccc(S(=O)(=O)NC(=O)CCC(=O)N2N=C(c3ccc(Cl)cc3)CC2c2ccc3nccnc3c2)cc1` (centres unmarked) [Compound 125, 4-(3-(4-Chlorophenyl)-5-(quinoxalin-6-yl)-4,5-dihydro-1H-pyrazol-1-yl)-4-oxo-N-tosylbutanamide], the inhibition at 10 µM came out at 21.8 ± 5.7%.

For the compound `O=C(O)CCC(=O)N1N=C(c2ccc(-c3ccc(OC4CCCC4)cc3)cc2)CC1c1ccc2nccnc2c1` (centres unmarked) [Compound 85, 4-(3-(4′-(Cyclopentyloxy)-[1,1′-biphenyl]-4-yl)-5-(quinoxalin-6-yl)-4,5-dihydro-1H-pyrazol-1-yl)-4-oxobutanoic acid], the inhibition at 2 µM is 17.9 ± 7.3% and the inhibition at 10 µM was found to be 71.8 ± 4.5%. In the same order, the values of `O=C(O)CCC(=O)N1N=C(c2ccc(-c3cc(F)cc(F)c3)cc2)CC1c1ccc2nccnc2c1` (centres unmarked) [Compound 66, 4-(3-(3′,5′-Difluoro-[1,1′-biphenyl]-4-yl)-5-(quinoxalin-6-yl)-4,5-dihydro-1H-pyrazol-1-yl)-4-oxobutanoic acid] are 17.5% and 85.4%. Consider `COc1cc(C2CC(c3ccc(Cl)cc3)=NN2C(=O)CCC(=O)O)ccc1F` (centres unmarked) [Compound 48, 4-(3-(4-Chlorophenyl)-5-(4-fluoro-3-methoxyphenyl)-4,5-dihydro-1H-pyrazol-1-yl)-4-oxobutanoic acid], for which the inhibition at 50 µM was 43.6 ± 4.5%. Consider `O=C(O)CCC(=O)N1N=C(c2ccc(-c3ccc(C(F)(F)F)cc3)cc2)CC1c1ccc2nccnc2c1` (centres unmarked) [Compound 20, 4-Oxo-4-(5-(quinoxalin-6-yl)-3-(4′-(trifluoromethyl)-[1,1′-biphenyl]-4-yl)-4,5-dihydro-1H-pyrazol-1-yl)butanoic acid], for which the inhibition at 10 µM turned out to be 37.2 ± 5.9%. With `COc1cc(C2CC(c3ccc(-c4ccccc4)cc3)=NN2C(=O)CCC(=O)O)ccc1O` (centres unmarked) [Compound 46, 4-(3-([1,1′-Biphenyl]-4-yl)-5-(4-hydroxy-3-methoxyphenyl)-4,5-dihydro-1H-pyrazol-1-yl)-4-oxobutanoic acid], the inhibition at 50 µM came out at 48.6 ± 1.7%.

For `O=C(O)CCC(=O)N1N=C(c2ccc(C(F)(F)F)cc2)CC1c1ccc2nccnc2c1` (centres unmarked) [Compound 5, 4-Oxo-4-(5-(quinoxalin-6-yl)-3-(4-(trifluoromethyl)phenyl)-4,5-dihydro-1H-pyrazol-1-yl)butanoic acid], the inhibition at 50 µM stood at 46.5 ± 2.7%.

For `CC(C)Oc1ccc(-c2ccc(C3=NN(C(=O)CCC(=O)O)C(c4ccc5nccnc5c4)C3)cc2)cc1F` (centres unmarked) [Compound 100, 4-(3-(3′-Fluoro-4′-isopropoxy-[1,1′-biphenyl]-4-yl)-5-(quinoxalin-6-yl)-4,5-dihydro-1H-pyrazol-1-yl)-4-oxobutanoic acid], the inhibition at 2 µM amounted to 25 ± 7.8% and the inhibition at 10 µM was 89.2 ± 3%.

Take `CCCCOc1ccc(-c2ccc(C3=NN(C(=O)CCC(=O)O)C(c4ccc5nccnc5c4)C3)cc2)cc1` (centres unmarked) [Compound 80, 4-(3-(4′-Butoxy-[1,1′-biphenyl]-4-yl)-5-(quinoxalin-6-yl)-4,5-dihydro-1H-pyrazol-1-yl)-4-oxobutanoic acid]: the inhibition at 2 µM worked out at 21.9 ± 4.3% and the inhibition at 10 µM is 89.4 ± 2.5%.

Values taken from patent US20260053171A1, “METHANOGEN INHIBITORS” (AGRIZERONZ LIMITED PARTNERSHIP, priority 2022, published 2026).
